Experimental findings from PMC3745430, “Novel Multiplexed Assay for Identifying SH2 Domain Antagonists of STAT Family Proteins” (PLoS ONE, 2013) are described below.

Experiment [1] deals with T1, STAT3(136–705) (Homo sapiens, UniProt P40763).
T1 construct: amino acids 136 to 705 of human STAT3 and 136 to 703 of human STAT5b; 6×His-tag (N); made in house; host or cells: E. coli BL-21 Star (DE3) pLysS co-transformed with pBirAcm
Kind of experiment: Multiplexed Alpha assay, STAT3-SH2 binding (AlphaLISA). Conditions: multiplexed binding assay; mean and SEM, three independent experiments; read-out: IC50 STAT3-SH2 binding (STAT3). The procedure: (§1) Both AlphaLISA and AlphaScreen are bead-based nonradioactive binding assay systems for detecting biomolecular interactions in a microplate format. The binding of the biological partners brings the donor and acceptor beads into close proximity, and AlphaLISA produces a specific signal around 615 nm and AlphaScreen emits a broad signal between 520 and 620 nm. The assays were performed in a final reaction volume of 25 µL of the assay buffer, which contained 10 mM HEPES-NaOH (pH 7.4), 50 mM NaCl, 1 mM EDTA (pH 8.0), 0.1% (w/v) NP-40, and 10 ng/µL (w/v) BSA in a 96-well microplate at 25°C. The labeled phosphotyrosyl (pTyr, pY) peptide probes were DIG-GpYLPQTV and FITC-GpYLVLDKW for STAT3 and STAT5b, respectively. In the single assay for STAT3 binding, 100 nM STAT3(136–705) protein was incubated with a test compound dissolved in DMSO for 30 min, and 1.0 nM DIG-GpYLPQTV was added and the mixture was incubated for 90 min. Streptavidin-coated donor beads (0.25 µg/well) and anti-DIG AlphaLISA acceptor beads (0.25 µg/well) were added and incubated for 90 min before the signals were measured with EnVison Xcite (PerkinElmer Life Sciences). In the single assay for STAT5b binding, 20 nM STAT5b(136–703) was incubated with a test compound for 30 min, and 1.0 nM FITC-GpYLVLDKW was added and incubated for 90 min. Streptavidin-coated donor beads (0.25 µg/well) and anti-FITC AlphaScreen acceptor beads (0.25 µg/well) were added and incubated for 90 min before the signals were measured with EnVison Xcite. In the multiplexed assay, 100 nM STAT3(136–705) and 20 nM STAT5b(136–703) were incubated with a test compound for 30 min, and 1.0 nM DIG-GpYLPQTV and 1.0 nM FITC-GpYLVLDKW were added and incubated for 90 min. Streptavidin-coated donor beads (0.50 µg/well), anti-DIG AlphaLISA (0.25 µg/well), and anti-FITC AlphaScreen acceptor beads (0.25 µg/well) were added and incubated for 90 min before the signals were measured with EnVison Xcite. AlphaLISA and AlphaScreen signals for measuring STAT3- and STAT5b-SH2 binding, respectively, can be separately measured by using a dysprosium 572 nm and a europium 615 nm narrow bandwidth filter. In inhibitory assays, these signals for the bound state and the free state were represented as 0% and 100% inhibition, respectively. The bound state was measured by incubating the labeled peptide and the protein without test compounds. The free state was measured by incubating the same mixture with an additional 10 µM non-labeled peptide contained phosphorylated tyrosine, which competitively binds to its corresponding protein. The IC50 value was calculated by Graph pad prism 4.0. The mean and the standard error (SEM) of IC50 values were determined from three independent experiments. The Z’ value was calculated using the equation Z’ = 1–(3×SD_bound +3×SD_free)/(Signal_bound – Signal_free). STAT1 and Grb2 binding assays were performed as described in previous report. In the assays for selectivity of Compound 1, 100 pM biotinylated DIG or 100 pM biotinylated FITC was incubated with 10 µM or 30 µM Compound 1 for 30 min. Streptavidin-coated donor beads (0.25 µg/well) and anti-DIG AlphaLISA acceptor beads (0.25 µg/well) or anti-FITC AlphaScreen acceptor beads (0.25 µg/well) were added and incubated for 90 min before the signals were measured with EnVison Xcite.
On the technique in general: Bead proximity is the source of the signal in Alpha formats.

The target of experiment [2] is T2, STAT1-SH2 (Homo sapiens, UniProt P42224).
T2 construct: made in house
T2 sequence (P42224 1-750): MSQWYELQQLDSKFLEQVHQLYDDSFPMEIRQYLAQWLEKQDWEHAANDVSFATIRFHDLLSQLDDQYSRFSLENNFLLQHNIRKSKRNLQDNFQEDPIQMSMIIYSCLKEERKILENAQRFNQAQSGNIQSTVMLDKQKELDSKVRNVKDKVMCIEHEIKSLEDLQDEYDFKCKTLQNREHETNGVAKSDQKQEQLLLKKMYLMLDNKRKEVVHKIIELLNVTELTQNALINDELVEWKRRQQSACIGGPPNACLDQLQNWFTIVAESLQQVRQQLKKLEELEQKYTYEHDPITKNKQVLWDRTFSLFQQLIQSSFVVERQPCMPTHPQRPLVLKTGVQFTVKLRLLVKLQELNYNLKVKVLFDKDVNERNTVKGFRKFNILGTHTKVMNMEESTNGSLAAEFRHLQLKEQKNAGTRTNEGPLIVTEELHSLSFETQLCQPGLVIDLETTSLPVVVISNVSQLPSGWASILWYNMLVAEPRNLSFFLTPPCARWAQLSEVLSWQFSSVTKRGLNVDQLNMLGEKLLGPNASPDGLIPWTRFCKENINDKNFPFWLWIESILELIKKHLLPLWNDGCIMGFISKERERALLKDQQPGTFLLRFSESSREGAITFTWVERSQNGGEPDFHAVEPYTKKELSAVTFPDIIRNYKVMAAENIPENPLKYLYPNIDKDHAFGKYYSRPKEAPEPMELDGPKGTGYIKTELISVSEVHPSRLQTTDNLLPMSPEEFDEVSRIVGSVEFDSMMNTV
The experiment is described as follows: STAT1-SH2 binding AlphaScreen assay. Conditions: AlphaScreen assay (Figure S8A). How it is done:
Both AlphaLISA and AlphaScreen are bead-based nonradioactive binding assay systems for detecting biomolecular interactions in a microplate format. The binding of the biological partners brings the donor and acceptor beads into close proximity, and AlphaLISA produces a specific signal around 615 nm and AlphaScreen emits a broad signal between 520 and 620 nm. The assays were performed in a final reaction volume of 25 µL of the assay buffer, which contained 10 mM HEPES-NaOH (pH 7.4), 50 mM NaCl, 1 mM EDTA (pH 8.0), 0.1% (w/v) NP-40, and 10 ng/µL (w/v) BSA in a 96-well microplate at 25°C. […] Streptavidin-coated donor beads (0.25 µg/well) and anti-DIG AlphaLISA acceptor beads (0.25 µg/well) were added and incubated for 90 min before the signals were measured with EnVison Xcite (PerkinElmer Life Sciences). […] Streptavidin-coated donor beads (0.25 µg/well) and anti-FITC AlphaScreen acceptor beads (0.25 µg/well) were added and incubated for 90 min before the signals were measured with EnVison Xcite. […] Streptavidin-coated donor beads (0.50 µg/well), anti-DIG AlphaLISA (0.25 µg/well), and anti-FITC AlphaScreen acceptor beads (0.25 µg/well) were added and incubated for 90 min before the signals were measured with EnVison Xcite. […] The bound state was measured by incubating the labeled peptide and the protein without test compounds. […] The IC50 value was calculated by Graph pad prism 4.0. […]

Experiment [3] concerns the target T3, STAT5b(136–703) (Homo sapiens, UniProt P51692).
T3 construct: 136 to 703 of human STAT5b; 6×His-tag (N); made in house; host or cells: E. coli BL-21 Star (DE3) pLysS co-transformed with pBirAcm
T3 sequence (P51692 136-703): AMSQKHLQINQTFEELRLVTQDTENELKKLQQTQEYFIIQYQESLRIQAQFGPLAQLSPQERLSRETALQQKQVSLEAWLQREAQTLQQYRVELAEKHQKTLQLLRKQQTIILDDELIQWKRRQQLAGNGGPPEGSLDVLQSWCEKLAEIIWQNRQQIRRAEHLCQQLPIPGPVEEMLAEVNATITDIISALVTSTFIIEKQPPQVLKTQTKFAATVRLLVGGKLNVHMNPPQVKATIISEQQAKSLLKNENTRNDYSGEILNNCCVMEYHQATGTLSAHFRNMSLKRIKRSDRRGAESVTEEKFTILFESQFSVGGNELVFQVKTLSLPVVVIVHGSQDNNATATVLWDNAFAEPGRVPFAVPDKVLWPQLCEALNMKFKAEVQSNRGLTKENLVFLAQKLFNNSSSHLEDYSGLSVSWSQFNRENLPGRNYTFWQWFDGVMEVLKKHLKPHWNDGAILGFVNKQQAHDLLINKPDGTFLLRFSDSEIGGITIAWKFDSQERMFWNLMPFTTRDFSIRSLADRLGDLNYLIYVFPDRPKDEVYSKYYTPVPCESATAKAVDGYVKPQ
The experiment is described as follows: Single STAT5b-SH2 binding assay (AlphaScreen). The note with it: non-multiplexed single assay. The procedure: as §1

T1 sequence (P40763 136-705): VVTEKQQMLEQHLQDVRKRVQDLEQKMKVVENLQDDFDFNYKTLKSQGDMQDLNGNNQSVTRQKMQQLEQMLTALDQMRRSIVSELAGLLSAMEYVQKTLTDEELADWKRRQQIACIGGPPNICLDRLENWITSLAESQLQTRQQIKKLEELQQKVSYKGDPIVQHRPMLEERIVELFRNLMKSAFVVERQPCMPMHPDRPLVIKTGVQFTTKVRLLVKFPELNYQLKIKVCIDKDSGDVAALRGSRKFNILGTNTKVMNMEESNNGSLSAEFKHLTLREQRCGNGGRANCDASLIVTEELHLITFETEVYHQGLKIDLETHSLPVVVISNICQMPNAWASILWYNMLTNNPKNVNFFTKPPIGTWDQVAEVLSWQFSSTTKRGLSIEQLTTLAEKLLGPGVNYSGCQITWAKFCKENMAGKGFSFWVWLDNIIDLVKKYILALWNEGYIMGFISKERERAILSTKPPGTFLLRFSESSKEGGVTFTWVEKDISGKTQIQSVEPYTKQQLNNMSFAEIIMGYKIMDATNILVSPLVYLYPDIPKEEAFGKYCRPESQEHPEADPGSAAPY

As usually defined, the IC50 is the midpoint of a concentration-inhibition curve. With `O=C1C=CC(=NC2=C(Cl)C(=O)c3ccccc3C2=O)C=C1` [Compound 1], the IC50 turned out to be 5 ± 0.073 µM in experiment [1] and 10 µM in experiment [3]. The “Inhibition of STAT1-SH2 binding” value in experiment [2] is given as “inhibited neither”.
